From patent US20120190669A1, “OXINDOLE COMPOUNDS” (CYLENE PHARMACEUTICALS, INC., priority 2008, published 2012)
Read-outs that look alike come from different tables or passages of the source.

Legend:
K-562 = experiment: Alamar Blue cell proliferation assay, K-562; format: cell-based; details: Homo sapiens
Method: (§1) A representative cell-proliferation assay protocol using Alamar Blue dye (stored at 4° C., use 20 ul per well) is described hereafter.
(§2) 96-Well Plate Setup and Compound Treatment
(§3) a. Split and trypsinize cells.
(§4) b. Count cells using hemocytometer.
(§5) c. Plate 4,000-5,000 cells per well in 100 μl of medium and seed into a 96-well plate according to the following plate layout. Add cell culture medium only to wells B10 to B12. Wells B1 to B9 have cells but no compound added.
(§6) d. Add 100 μl of 2× drug dilution to each well in a concentration shown in the plate layout above. At the same time, add 100 μl of media into the control wells (wells 1310 to B12). Total volume is 200 μl/well.
(§7) e. Incubate four (4) days at 37° C., 5% CO2 in a humidified incubator.
(§8) f. Add 20 μl Alamar Blue reagent to each well.
(§9) g. Incubate for four (4) hours at 37° C., 5% CO2 in a humidified incubator.
(§10) h. Record fluorescence at an excitation wavelength of 544 nm and emission wavelength of 590 nm using a microplate reader.
(§11) In the assays, cells are cultured with a test compound for approximately four days, the dye is then added to the cells and fluorescence of […] dye is detected after approximately four hours. Different types of cells can be utilized in the assays (e.g., HCT-116 human colorectal carcinoma cells, PC-3 human prostatic cancer cells and MiaPaca human pancreatic carcinoma cells).

[1] = system: MiaPaca human pancreatic carcinoma cells; experiment: Alamar Blue cell proliferation assay, MiaPaCa; format: cell-based
Method: as §1, §2, §3, §4, §5, §6, §7, §8, §9, §10, §11

[2] = system: PC-3 human prostatic cancer cells; experiment: Alamar Blue cell proliferation assay, PC3; format: cell-based
Method: as §1, §2, §3, §4, §5, §6, §7, §8, §9, §10, §11

MDAMB-231 = experiment: Alamar Blue cell proliferation assay, MDAMB-231; format: cell-based; details: Homo sapiens, MDA-MB-231, Table 3, read-out: AB: MDAMB-231
Method: as §1, §2, §3, §4, §5, §6, §7, §8, §9, §10, §11

MV-4-11 = experiment: Alamar Blue cell proliferation assay, MV-4-11; format: cell-based; details: Homo sapiens
Method: as §1, §2, §3, §4, §5, §6, §7, §8, §9, §10, §11

recombinant PIM-1 = recombinant PIM-1 (Homo sapiens, UniProt P11309); experiment: PIM-1 kinase assay (radiometric, 15 uM ATP, DMSO 4%); format: biochemical; details: for inhibition at 0.5 µM: Table 5, compound at 500 nM, read-out: PIM1: % inh 500 nM
[3] = system: HCT-116 human colorectal carcinoma cells; experiment: Alamar Blue cell proliferation assay, HCT-116; format: cell-based; details: Table 5, read-out: AB: HCT-116 IC50
Method: as §1, §2, §3, §4, §5, §6, §7, §8, §9, §10, §11

[4] = K562, Table 3, read-out: AB: K-562
[5] = MIA PaCa-2, Table 3, read-out: AB: MiaPaCa
[6] = MV4-11, Table 3, read-out: AB: MV-4-11
[7] = Table 3, DMSO 4%, read-out: PIM1: IC50 (DMSO 4%)
[8] = K562, Table 5, read-out: AB: K-562 IC50
[9] = MIA PaCa-2, Table 5, read-out: AB: MiaPaCa IC50
[10] = Table 5, read-out: AB: PC3 IC50
[11] = MV4-11, Table 5, read-out: AB: MV-4-11 IC50

recombinant PIM-1, sequence (P11309 whole entry): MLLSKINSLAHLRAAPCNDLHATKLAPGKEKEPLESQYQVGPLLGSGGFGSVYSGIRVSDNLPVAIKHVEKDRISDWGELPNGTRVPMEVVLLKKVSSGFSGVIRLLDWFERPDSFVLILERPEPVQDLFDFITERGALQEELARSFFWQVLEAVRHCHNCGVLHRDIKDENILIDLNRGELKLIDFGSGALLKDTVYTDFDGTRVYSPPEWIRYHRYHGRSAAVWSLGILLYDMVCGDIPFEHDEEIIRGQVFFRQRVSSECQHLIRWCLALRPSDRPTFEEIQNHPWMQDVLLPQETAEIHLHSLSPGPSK

Row | Structure (SMILES) | inhibition at 0.5 µM (recombinant PIM-1) [%] | IC50 (K-562; [8]) [µM] | IC50 [1, 9] [µM] | IC50 [2, 10] [µM] | IC50 (MV-4-11; [11]) [µM] | IC50 [3] [µM] | further results
1 | CC/C(=C1\C(=O)Nc2ccc(Cl)cc21)c1ccc(-c2cccc(C(=O)N3CCCN(C)CC3)c2)o1 | – | – | – | – | – | – | IC50 (K-562; [4]): 0.153 µM; IC50 [1, 5]: 0.302 µM; IC50 ([2]; Table 3, read-out: AB: PC3): > 30 µM; IC50 (MDAMB-231): > 10 µM; IC50 (MV-4-11; [6]): 0.109 µM
2 | O=C1Nc2ccc(Cl)cc2/C1=C\c1ccc(-c2ccc(OCCN3CCOCC3)cc2)o1 | – | – | – | – | – | – | IC50 (recombinant PIM-1; [7]): < 1 µM; IC50 (K-562; [4]): > 10 µM; IC50 [1, 5]: > 10 µM; IC50 ([2]; Table 3, read-out: AB: PC3): > 30 µM; IC50 (MDAMB-231): > 10 µM; IC50 (MV-4-11; [6]): > 10 µM
3 | O=C1Nc2ccc(Cl)cc2/C1=C\c1ccc(-c2cccc(-c3nnc[nH]3)c2)o1 | – | – | – | – | – | – | IC50 (recombinant PIM-1; [7]): < 1 µM; IC50 (K-562; [4]): > 10 µM; IC50 [1, 5]: > 10 µM; IC50 ([2]; Table 3, read-out: AB: PC3): > 30 µM; IC50 (MDAMB-231): > 10 µM; IC50 (MV-4-11; [6]): > 10 µM
4 | O=C1Nc2ccc(Cl)cc2/C1=C\c1ccc(-c2cccc(C(=O)N3CCCNCC3)c2)o1 | – | – | – | – | – | – | IC50 (K-562; [4]): 0.342 µM; IC50 [1, 5]: 0.815 µM; IC50 ([2]; Table 3, read-out: AB: PC3): 9.62 µM; IC50 (MDAMB-231): 3.15 µM
5 | NC(=O)c1ccc(-c2ccc(/C=C3\C(=O)Nc4ccc(Cl)cc43)o2)cc1 | – | – | – | – | – | – | IC50 (recombinant PIM-1; [7]): < 1 µM; IC50 (K-562; [4]): > 10 µM; IC50 [1, 5]: > 10 µM; IC50 ([2]; Table 3, read-out: AB: PC3): > 30 µM; IC50 (MDAMB-231): > 10 µM
6 | CN1CCCN(C(=O)c2cccc(-c3ccc(/C=C4/C(=O)Nc5ccc(F)cc54)o3)c2)CC1 | – | – | – | – | – | – | IC50 (recombinant PIM-1; [7]): < 1 µM; IC50 ([2]; Table 3, read-out: AB: PC3): > 10 µM
7 | NS(=O)(=O)c1ccc(-c2ccc(/C=C3/C(=O)Nc4ccc(Cl)cc43)o2)cc1 | – | – | – | – | – | – | IC50 (recombinant PIM-1; [7]): < 1 µM; IC50 ([2]; Table 3, read-out: AB: PC3): > 10 µM
8 | COC(=O)c1cccc(-c2coc(/C=C3/C(=O)Nc4ccccc43)c2)c1 | -18.4 | 1.31 | 4.34 | 1.89 | > 10 | 2.33 | –
9 | CN1CCCC(NC(=O)c2cccc(-c3coc(/C=C4/C(=O)Nc5ccccc54)c3)c2)C1 (stereo not drawn) | -22.7 | > 10 | > 10 | > 10 | 0.315 | 4.31 | –
10 | CN1CCCCC1CNC(=O)c1cccc(-c2coc(/C=C3/C(=O)Nc4ccccc43)c2)c1 (stereo not drawn) | -28.9 | 0.099 | 2.4 | 1.65 | 0.12 | 2.49 | –
11 | CN(C)C1CCN(C(=O)c2cccc(-c3coc(/C=C4/C(=O)Nc5ccccc54)c3)c2)CC1 | -38.8 | 0.077 | 9.37 | > 10 | 2.14 | 7.01 | –
12 | CCN(CC)CCNC(=O)c1cccc(-c2coc(/C=C3/C(=O)Nc4ccccc43)c2)c1 | -10.9 | > 10 | 9.23 | > 10 | 0.761 | 7.82 | –
13 | Cn1cncc1CNC(=O)c1cccc(-c2coc(/C=C3/C(=O)Nc4ccccc43)c2)c1 | -14.6 | > 10 | > 10 | > 10 | 0.998 | > 10 | –
14 | O=C1Nc2ccccc2/C1=C\c1cc(-c2cccc(C(=O)NCc3ccncc3)c2)co1 | -4.22 | > 10 | > 10 | > 10 | 0.168 | > 10 | –
15 | CN1CCCN(C(=O)c2cccc(-c3ccc(CC4C(=O)Nc5ccc(Cl)cc54)o3)c2)CC1 (stereo not drawn) [Compound 197] | – | – | – | – | – | – | IC50 (recombinant PIM-1; Table 1, given for compounds with IC50 at or below 2 micromolar, 15 uM ATP, read-out: PIM-1 IC50): < 1 µM
16 | CN1CCCN(C(=O)c2cccc(-c3ccc(CC4C(=O)Nc5ccc(Cl)cc54)o3)c2)CC1 (stereo not drawn) [drawing 213] | – | – | – | – | – | – | IC50 (recombinant PIM-1; Table 2, read-out: PIM1: IC50): < 0.1 µM; IC50 (K-562; K562, Table 2, read-out: AB: K-562): 0.24 µM; IC50 ([1]; MIA PaCa-2, Table 2, read-out: AB: MiaPaCa): 0.559 µM; IC50 ([2]; Table 2, read-out: AB: PC3): 15.4 µM
17 | CCN(CC)CCNC(=O)c1ccc(-c2ccc(/C=C3/C(=O)Nc4ccc(Cl)cc43)o2)cc1 [drawing 216] | – | – | – | – | – | – | IC50 (recombinant PIM-1; [7]): < 1 µM; IC50 (K-562; [4]): > 10 µM; IC50 [1, 5]: > 10 µM; IC50 (MDAMB-231): > 10 µM; IC50 (MV-4-11; [6]): > 1 µM
18 | Nc1cccc(-c2ccc(/C=C3/C(=O)Nc4ccccc43)o2)c1 [drawing 234] | – | – | – | – | – | – | IC50 (recombinant PIM-1; Table 4, 15 um ATP, read-out: PIM1: IC50 (15 um ATP)): 0.992 µM; IC50 (K-562; K562, Table 4, read-out: AB: K-562): 5.13 µM; IC50 (MV-4-11; MV4-11, Table 4, read-out: AB: MV-4-11): 2.44 µM
19 | CN1CCCC(NC(=O)c2cccc(-c3coc(/C=C4/C(=O)Nc5ccc(F)cc54)c3)c2)C1 (stereo not drawn) [drawing 249] | 6.11 | 3.12 | > 10 | 7 | 1.01 | 4.65 | –
20 | CCN1CCCC1CNC(=O)c1cccc(-c2coc(/C=C3/C(=O)Nc4ccc(F)cc43)c2)c1 (stereo not drawn) [drawing 250] | 17.1 | 0.941 | > 10 | > 10 | 0.485 | 5.23 | –
21 | Cn1cncc1CNC(=O)c1cccc(-c2coc(/C=C3/C(=O)Nc4ccc(F)cc43)c2)c1 [drawing 252] | 12.7 | > 10 | > 10 | > 10 | 1.38 | > 10 | –
22 | CN1CCCCC1CNC(=O)c1cccc(-c2coc(/C=C3/C(=O)Nc4ccc(F)cc43)c2)c1 (stereo not drawn) [drawing 253] | 9.42 | 1.65 | > 10 | > 10 | 0.627 | 4.47 | –
23 | CCN(CC)CCNC(=O)c1cccc(-c2coc(/C=C3/C(=O)Nc4ccc(F)cc43)c2)c1 [drawing 254] | 11.5 | 2.44 | > 10 | > 10 | 0.271 | 3.6 | –
24 | O=C1Nc2ccc(F)cc2/C1=C\c1cc(-c2cccc(C(=O)NCc3ccncc3)c2)co1 [drawing 255] | -19.1 | > 10 | > 10 | – | 1.57 | > 10 | –
25 | CN(C)C1CCN(C(=O)c2cccc(-c3coc(/C=C4/C(=O)Nc5ccc(F)cc54)c3)c2)CC1 [drawing 256] | 10.8 | 3.7 | > 10 | 7.53 | 0.516 | 3.85 | –
